This is an account of results in patent publication US20240417405A1, “Substituted Spiro Derivatives” (Janssen Pharmaceutica NV, priority 2021, published 2024).

pIC50: −log10 of the molar value.

Experiment [1] deals with T1, menin/MLL (terbium chelate-labeled menin, FITC-MBM1 peptide) (Homo sapiens, UniProt O00255, T541A).
T1 construct: Menin (a.a 1-610-6xhis tag)
T1 sequence (O00255 with tags, fused parts or gaps T541A): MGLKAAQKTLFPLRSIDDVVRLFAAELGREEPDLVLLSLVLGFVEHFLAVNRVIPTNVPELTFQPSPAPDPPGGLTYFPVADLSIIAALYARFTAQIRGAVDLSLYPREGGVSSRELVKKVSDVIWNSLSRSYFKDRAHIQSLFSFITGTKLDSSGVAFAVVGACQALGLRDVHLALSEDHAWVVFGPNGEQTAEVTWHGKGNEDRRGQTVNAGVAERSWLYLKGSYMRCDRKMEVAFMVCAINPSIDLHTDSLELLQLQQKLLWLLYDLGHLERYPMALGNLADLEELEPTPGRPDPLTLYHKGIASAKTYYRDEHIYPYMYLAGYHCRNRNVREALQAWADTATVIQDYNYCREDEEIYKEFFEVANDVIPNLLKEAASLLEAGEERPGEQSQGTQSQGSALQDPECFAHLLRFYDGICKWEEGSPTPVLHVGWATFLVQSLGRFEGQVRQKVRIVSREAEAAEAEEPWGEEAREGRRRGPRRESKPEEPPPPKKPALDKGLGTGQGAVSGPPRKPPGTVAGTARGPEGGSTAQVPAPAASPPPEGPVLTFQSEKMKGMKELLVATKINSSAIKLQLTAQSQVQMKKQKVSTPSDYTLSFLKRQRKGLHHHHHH
Put plainly: Menin/MLL homogenous time-resolved fluorescence (HTRF) assay. The class given is binding. Conditions: 30 min incubation. Summed up:
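Percent inhibition, calculated from the 520/490 nm HTRF ratio against high and low controls, was fitted for IC50 with a 0.1 nM detection limit. Reactions held 200 pM Tb-menin and 75 nM FITC-MBM1 in pH 7.5 Tris buffer with 0.5% DMSO.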
Background: In TR-FRET formats the signal depends on donor and acceptor labels being close together.

The subject of another experiment is MOLM14 cells. In words: Proliferation assay, spheroid-like growth, MOLM14 (MLL-AF9 rearranged). The class given is cell-based, human. Conditions: Homo sapiens, MOLM-14, 192 h, 8 days, confluence as measure of spheroid size, read-out: spheroid assay_OneTime MOLM14 IC50. The method, boiled down:
(§1)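 Seed cells at linear-growth densities in low-attachment wells; add test compound at several concentrations, normalized to 0.3% DMSO; incubate 8 days at 37 °C; image spheroids and measure confluence; calculate absolute IC50 against DMSO and reference-compound controls.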

The next experiment relates to KO-52 cells. In words: Proliferation assay, spheroid-like growth, KO-52 (MLL wildtype control cell line). The format is cell-based, human. Particulars: Homo sapiens, 192 h, KO-52 control cells, 8 days, confluence as measure of spheroid size; read-out: spheroid assay_OneTime KO-52 IC50. The method, boiled down: as §1

As a reminder, the pIC50 is the IC50 on a negative log10 scale, so that one unit is a factor of ten.

As to `CC(C)[C@H]([C@H]1C[C@H](N2CC3(CCO3)C2)C1)N1CC2(CCN(c3ncnnc3Oc3ccc(F)cc3-c3cncnc3C3CC3)C2)C1` (single isomer, unassigned) [Compound 146], the pIC50 in experiment [1] was 9.70; in the experiment on MOLM14 cells, 6.80; with KO-52 cells, 5.18.
For `CC(C)[C@H]([C@H]1C[C@@H](N(C)C)C1)N1CC2(CCN(c3ncnnc3Oc3ccc(F)cc3-c3ncccc3C3CC3)C2)C1` (single isomer, unassigned) [Compound 147], in that order: 10.00, 8.40 and 6.41.
On the same counts, the results for `CC(C)[C@H]([C@H]1C[C@@H](NC2CC2)C1)N1CC2(CCN(c3ncnnc3Oc3ccc(F)cc3-c3ncccc3C3CC3)C2)C1` (single isomer, unassigned) [Compound 148] are 9.70, 8.52 and 6.21.
In the case of `CC(C)[C@H]([C@H]1C[C@@H](N2C[C@H]3COC[C@H]3C2)C1)N1CC2(CCN(c3ncnnc3Oc3ccc(F)cc3-c3ncccc3C3CC3)C2)C1` (single isomer, unassigned) [Compound 149], the pIC50 in experiment [1] is 10.00; with MOLM14 cells, more than 8.70; with KO-52 cells it was 6.29.
For the molecule `CC(C)[C@H]([C@H]1C[C@H](N2C[C@H]3COC[C@H]3C2)C1)N1CC2(CCN(c3ncnnc3Oc3ccc(F)cc3-c3ncccc3C3CC3)C2)C1` (single isomer, unassigned) [Compound 150], the negative logarithm of the IC50 (pIC50) in experiment [1] was 10.00; in the experiment with MOLM14 cells, 6.92; with KO-52 cells, 5.50.
On to `CC(C)[C@H]([C@H]1C[C@@H](N2CC3(COC3)C2)C1)N1CC2(CCN(c3ncnnc3Oc3ccc(F)cc3-c3ncccc3C3CC3)C2)C1` (single isomer, unassigned) [Compound 151], for which the pIC50 in experiment [1] is 10.00; in the experiment with MOLM14 cells, 8.40; in the experiment with KO-52 cells, 5.69.
Turning to `CC(C)[C@H]([C@H]1C[C@H](N2CC3(COC3)C2)C1)N1CC2(CCN(c3ncnnc3Oc3ccc(F)cc3-c3ncccc3C3CC3)C2)C1` (single isomer, unassigned) [Compound 152], the values for the pIC50 (in experiment [1]; in the experiment on MOLM14 cells; in the experiment on KO-52 cells) were 9.70, 7.31 and 5.40, respectively.
For `CC(C)[C@@H]([C@H]1C[C@@H](N(C)C)C1)N1CC2(CCN(c3ncnnc3Oc3ccc(F)cc3-c3ncccc3C3CC3)C2)C1` (single isomer, unassigned) [Compound 153], in that order: 8.28, 6.14 and 5.32.
Take `CC(C)[C@H](C1CC2(C1)CN(CC1COC1)C2)N1CC2(CCN(c3ncnnc3Oc3ccc(F)cc3-c3cncnc3C3CC3)C2)C1` (single isomer, unassigned) [Compound 154]: the pIC50 in experiment [1] is 9.40; in the experiment on MOLM14 cells, 6.64; in the experiment on KO-52 cells, 5.04.
Take `CC(C)[C@H](C1CC2(CCN2CC2COC2)C1)N1CC2(CCN(c3ncnnc3Oc3ccc(F)cc3-c3cncnc3C3CC3)C2)C1` (single isomer, unassigned) [Compound 155]: the figures for the pIC50 (in experiment [1]; in the experiment on MOLM14 cells; in the experiment on KO-52 cells) were 8.64, 6.24 and less than 4.82, respectively.
On the same counts, the results for `CC(C)[C@@H](C1CC2(C1)CN(CC1COC1)C2)N1CC2(CCN(c3ncnnc3Oc3ccc(F)cc3-c3cncnc3C3CC3)C2)C1` (single isomer, unassigned) [Compound 157] are 9.70, 6.92 and 5.11.
On the same counts, the results for `CC(C)[C@@H](C1CC2(CCN2CC2COC2)C1)N1CC2(CCN(c3ncnnc3Oc3ccc(F)cc3-c3cncnc3C3CC3)C2)C1` (single isomer, unassigned) [Compound 158] are 9.10, 6.32 and less than 4.82.
